In brackets after ≈: the same amount, converted by molar mass. Read-outs that look alike come from different tables or passages of the source.
Experiments:
[1] = system: vancomycin-resistant E. faecalis (ATCC 700802)
[2] = system: K. pneumoniae (ATCC 13383)
[3] = system: C. albicans (ATCC 10231)
[4] = system: E. coli (JM109)
[5] = system: multi-drug resistant P. aeruginosa ATCC 27853
[6] = system: human red blood cells (hRBC's); experiment: Hemolysis assay; assay type: cell-based
Description: Freshly drawn human red blood cells (hRBC's) with additive K2 EDTA (spray-dried) were washed with PBS buffer several times and centrifuged at 1000 g for 10 min until a clear supernatant was observed. The hRBC's were resuspended in 1×PBS to get a 5% v/v suspension. Two-fold serial dilutions of γ-AApeptides dissolved in 1×PBS from 250 μg/ml through 1.6 μg/ml were added to a sterile 96-well plate to make up a total volume of 50 μL in each well. Then 50 μL of 5% v/v hRBC solution was added to make up a total volume of 100 μL in each well. The 0% hemolysis point and 100% hemolysis point were determined in 1×PBS and 0.2% Triton-X-100, respectively (Patch et al., 2003). The plate was then incubated at 37° C. for 1 h and centrifuged at 3500 rpm for 10 min. The supernatant (30 μL) was diluted with 100 μL of 1×PBS and absorption was detected by measuring the optical density at 360 nm by Biotek Synergy HT microtiter plate reader. % hemolysis was determined by the following equation: % hemolysis=(Abssample−AbsPBS)/(AbsTriton−AbsPBS)×100 H50 is the concentration of γ-AApeptide amphiphiles at which 50% hemolysis was observed. The highest concentration tested in the hemolytic assay was 500 μg/ml. 7. Fluorescence Microscopy
The sequences shown in FIG. 12 were also evaluated via hemolytic assays. Freshly drawn human red blood cells (hRBC's) with additive K2 EDTA (spray-dried) were washed with PBS buffer several times and centrifuged at 1000 g for 10 min until a clear supernatant was observed. The hRBC's were resuspended in 1×PBS to get a 5% v/v suspension. Two-fold serial dilutions of lipidated γ-AApeptides dissolved in 1×PBS from 1 mg/ml through 6.3 μg/ml were added to sterile 96-well plates to make up a total volume of 50 μL in each well. Then 50 μL of 5% v/v hRBC solution was added to make up a total volume of 100 μL in each well. The 0% hemolysis point and 100% hemolysis point were determined in 1×PBS and 0.2% Triton-X-100, respectively (Patch et al., 2003). The plate was then incubated at 37° C. for 1 h and centrifuged at 3500 rpm for 10 min. The supernatant (30 μL) was diluted with 100 μL of 1×PBS and absorption was detected by measuring the optical density at 360 nm with a Biotek Synergy HT microtiter plate reader. % hemolysis was determined by the following equation: % hemolysis=(Abs sample−Abs PBS)/(Abs Triton−Abs PBS)×100

[7] = system: B. subtilis (BR151)
[8] = system: methicillin-resistant S. aureus (ATCC 33592)
[9] = system: multi-drug resistant S. epidermidis (RP62A)
[10] = Table 5, first value of H10/H50
[11] = Table 5, second value of H10/H50

Row | Structure (SMILES) | MIC, K. pneumoniae (causing pneumonia) [2] [µg/mL] | MIC, E. coli [4] [µg/mL] | MIC, P. aeruginosa ([5]; ATCC 27853) [µg/mL] | MIC, B. subtilis [7] [µg/mL] | MIC, E. faecalis (VREF) ([1]; Table 5) [µg/mL] | MIC, K. pneumoniae [2] [µg/mL] | MIC, Fungus C. albicans ([3]; ATCC 10231) [µg/mL] | Hemolysis H10 [6] [µg/mL] | Hemolysis H50 [6] [µg/mL] | MIC, S. aureus (MRSA) ([8]; Table 5) | MIC, S. epidermidis (MRSE) ([9]; Table 5) [µg/mL] | other results
1 | CCCCCCCCCCCCCCCC(=O)N[C@@H](C)CN(CC(=O)N[C@@H](CCCCN)CN(CC(=O)N[C@@H](Cc1ccccc1)CN(CC(=O)N[C@@H](Cc1ccccc1)CN(CC(N)=O)C(=O)CCc1c[nH]cn1)C(=O)CCc1c[nH]cn1)C(=O)CCCN)C(C)=O [γAA3] | 12.5 to 25 | 1.6 to 3.1 | 3 to 6 | 1.6 to 3.1 | – | – | – | – | – | – | – | MIC, E. faecalis (vancomycin-resistant) ([1]; Table 3): 1.6 to 3.1 µg/mL; MIC, Fungi C. albicans ([3]; ATCC 10231): 1.6 to 3.1 µg/mL; Hemolysis (H50) [6]: 150 µg/mL; MIC, S. aureus (methicillin-resistant) ([8]; Table 3): 1.6 to 3.1 µg/mL; MIC, S. epidermidis (multi-drug resistant) ([9]; Table 3): 1.6 to 3.1 µg/mL
2 | CC(C)CCC(=O)N1CC(=O)N[C@@H](CCCCN)CN(C(=O)CCc2ccccc2)CC(=O)N[C@@H](CCCCN)CN(C(=O)CCc2ccccc2)CC(=O)N[C@@H](Cc2ccccc2)CN(CC(N)=O)C(=O)CCC(=O)N[C@@H](CCCCN)CN(C(=O)CCc2ccccc2)CC(=O)N[C@@H](CCCCN)CN(C(=O)CCc2ccccc2)CC(=O)N[C@@H](CCCCN)CN(C(=O)CCc2ccccc2)CC(=O)N[C@@H](Cc2ccccc2)C1 [γAA4] | >100 | 3.1 to 6.3 | – | 2 (≈ 0.955 µM) | – | – | – | – | – | – | – | MIC, E. faecalis (vancomycin-resistant) ([1]; ATCC 700802): 12.5 to 25 µg/mL; MIC, Fungi C. albicans ([3]; ATCC 10231): 3 to 6 µg/mL; Hemolysis (H50) ([6]; Table 3): >500 µg/mL; MIC, S. aureus (methicillin-resistant) ([8]; ATCC 33592): 3.1 to 6.3 µg/mL; MIC, S. epidermidis (multi-drug resistant) ([9]; multi-drug resistant (RP62A)): 2 µg/mL (≈ 0.955 µM)
3 | CC(C)CCC(=O)N1CC(=O)N[C@@H](Cc2ccccc2)CN(C(=O)CCC(C)C)CC(=O)N[C@@H](CCCCN)CN(C(=O)CCc2ccccc2)CC(=O)N[C@@H](CCCCN)CN(C(=O)CCc2ccccc2)CC(=O)N[C@@H](CCCCN)CN(C(=O)CCc2ccccc2)CC(=O)N[C@@H](CCCCN)CN(C(=O)CCc2ccccc2)CC(=O)N[C@@H](Cc2ccccc2)CN(CC(N)=O)C(=O)CCC(=O)N[C@@H](Cc2ccccc2)C1 [HW-B-13] | – | – | – | – | 5 (≈ 2.4 µM) | 8 (≈ 3.85 µM) | 2 (≈ 0.962 µM) | 40 | 100 | 1 | 2 (≈ 0.962 µM) | –
4 | NCCCC[C@H](N)CN(CC(=O)N[C@@H](CCCCN)CN(CC(=O)N[C@@H](CCCCN)CN(CC(N)=O)C(=O)CCc1ccccc1)C(=O)CCc1ccccc1)C(=O)CCc1ccccc1 [γ1] | >100 | >100 | – | >100 | – | – | – | – | – | – | – | MIC, E. faecalis (vancomycin-resistant) ([1]; Table 1): >100 µg/mL; MIC, S. aureus (methicillin-resistant) ([8]; Table 1): >100 µg/mL; MIC, S. epidermidis (multi-drug resistant) ([9]; Table 1): >100 µg/mL
5 | NCCCC[C@H]1CN(C(=O)CCc2ccccc2)CC(=O)N[C@@H](CCCCN)CN(C(=O)CCc2ccccc2)CC(=O)N[C@@H](CCCCN)CN(C(=O)CCc2ccccc2)CC(=O)N[C@@H](CCCCN)CN(C(=O)CCc2ccccc2)CC(=O)N[C@@H](CCCCN)CN(C(=O)CCc2ccccc2)CC(=O)N[C@@H](CCCCN)CN(C(=O)CCc2ccccc2)CC(=O)N[C@@H](Cc2ccccc2)CN(CC(N)=O)C(=O)CCC(=O)N1 [HW-B-5] | – | – | 18 (≈ 8.53 µM) | 5 (≈ 2.37 µM) | 20 (≈ 9.48 µM) | > 50 | > 50 | > 500 | > 500 | 25-50 | 8 (≈ 3.79 µM) | –
6 | NCCCC[C@H](N)CN(CC(=O)N[C@@H](CCCCN)CN(CC(=O)N[C@@H](CCCCN)CN(CC(=O)N[C@@H](CCCCN)CN(CC(=O)N[C@@H](CCCCN)CN(CC(N)=O)C(=O)CCc1ccccc1)C(=O)CCc1ccccc1)C(=O)CCc1ccccc1)C(=O)CCc1ccccc1)C(=O)CCc1ccccc1 [γ2] | >100 | 25 (≈ 16.3 µM) | – | 5 (≈ 3.26 µM) | – | – | – | – | – | – | – | MIC, E. faecalis (vancomycin-resistant) ([1]; Table 1): >100 µg/mL; MIC, S. aureus (methicillin-resistant) ([8]; Table 1): >100 µg/mL; MIC, S. epidermidis (multi-drug resistant) ([9]; Table 1): >100 µg/mL
7 | CC(C)CCC(=O)N1CC(=O)N[C@@H](Cc2ccccc2)CN(C(=O)CCC(C)C)CC(=O)N[C@@H](Cc2ccccc2)CN(C(=O)CCC(C)C)CC(=O)N[C@@H](CCCCN)CN(C(=O)CCc2ccccc2)CC(=O)N[C@@H](CCCCN)CN(C(=O)CCc2ccccc2)CC(=O)N[C@@H](CCCCN)CN(C(=O)CCc2ccccc2)CC(=O)N[C@@H](Cc2ccccc2)CN(CC(N)=O)C(=O)CCC(=O)N[C@@H](Cc2ccccc2)C1 [HW-B-14] | – | – | – | – | – | 10 (≈ 4.84 µM) | 4 (≈ 1.94 µM) | – | – | – | – | MIC, E. faecalis (VREF) ([1]; ATCC 700802): 5 µg/mL (≈ 2.42 µM); Hemolysis H10 [6, 10]: 45 µg/mL; Hemolysis H50 [6, 11]: 300 µg/mL; MIC, S. aureus (MRSA) ([8]; ATCC 33592): 3 µg/mL (≈ 1.45 µM); MIC, S. epidermidis (MRSE) ([9]; multi-drug resistant (RP62A)): 2 µg/mL (≈ 0.969 µM)
8 | CC(C)CCC(=O)N1CC(=O)N[C@@H](CCCCN)CN(C(=O)CCc2ccccc2)CC(=O)N[C@@H](CCCCN)CN(C(=O)CCc2ccccc2)CC(=O)N[C@@H](Cc2ccccc2)CN(CC(N)=O)C(=O)CCC(=O)N[C@@H](CCCCN)CN(C(=O)CCc2ccccc2)CC(=O)N[C@@H](CCCCN)CN(C(=O)CCc2ccccc2)CC(=O)N[C@@H](CCCCN)CN(C(=O)CCc2ccccc2)CC(=O)N[C@@H](Cc2ccccc2)C1 [HW-B-11] | – | – | – | – | – | 20 (≈ 9.55 µM) | – | – | – | – | – | MIC, E. faecalis (VREF) ([1]; ATCC 700802): 15 µg/mL (≈ 7.16 µM); MIC, Fungus C. albicans ([3]; Table 5): 5 µg/mL (≈ 2.39 µM); MIC, P. aeruginosa ([5]; Table 5): 10 µg/mL (≈ 4.77 µM); Hemolysis H10 [6, 10]: 200 µg/mL; Hemolysis H50 [6, 11]: > 500 µg/mL; MIC, S. aureus (MRSA) ([8]; ATCC 33592): 5 µg/mL (≈ 2.39 µM); MIC, S. epidermidis (MRSE) ([9]; multi-drug resistant (RP62A)): 2 µg/mL (≈ 0.955 µM)
9 | NCCCC[C@H]1CN(C(=O)CCc2ccccc2)CC(=O)N[C@@H](CCCCN)CN(C(=O)CCc2ccccc2)CC(=O)N[C@@H](CCCCN)CN(C(=O)CCc2ccccc2)CC(=O)N[C@@H](CCCCN)CN(C(=O)CCc2ccccc2)CC(=O)N[C@@H](Cc2ccccc2)CN(CC(N)=O)C(=O)CCC(=O)N1 [HW-B-3] | – | – | – | 25000 to 50000 | > 50 | > 50 | > 50 | – | – | > 50 µg/mL | > 50 | MIC, P. aeruginosa ([5]; Table 5): > 50 µg/mL; Hemolysis H10 [6, 10]: > 500 µg/mL; Hemolysis H50 [6, 11]: > 500 µg/mL
10 | NCCCC[C@H]1CN(C(=O)CCc2ccccc2)CC(=O)N[C@@H](CCCCN)CN(C(=O)CCc2ccccc2)CC(=O)N[C@@H](CCCCN)CN(C(=O)CCc2ccccc2)CC(=O)N[C@@H](CCCCN)CN(C(=O)CCc2ccccc2)CC(=O)N[C@@H](CCCCN)CN(C(=O)CCc2ccccc2)CC(=O)N[C@@H](Cc2ccccc2)CN(CC(N)=O)C(=O)CCC(=O)N1 [HW-B-4] | – | – | 20 (≈ 11.1 µM) | 10 (≈ 5.54 µM) | 20 (≈ 11.1 µM) | > 50 | > 50 | > 500 | > 500 | > 50 µg/mL | 10 (≈ 5.54 µM) | –
11 | CCCCCCCCCCCCCCCC(=O)N[C@@H](C)CN(CC(=O)N[C@@H](C)CN(CC(=O)N[C@@H](CC(C)C)CN(CC(=O)N[C@@H](CC(C)C)CN(CC(=O)N[C@@H](CC(C)C)CN(CC(N)=O)C(=O)CCCN)C(=O)CCCN)C(=O)CCCN)C(C)=O)C(C)=O [Sequence 6] | – | – | – | – | – | – | – | – | – | – | – | MIC, Gram positive E. faecalis ([1]; Table 7): 5 µg/mL (≈ 3.87 µM); MIC, Gram negative K. pneumoniae [2]: 5 µg/mL (≈ 3.87 µM); MIC, Gram negative E. coli [4]: 2.5 µg/mL (≈ 1.94 µM); MIC, Gram negative P. aeruginosa ([5]; ATCC 27853): 5 µg/mL (≈ 3.87 µM); Hemolysis HC10 ([6]; red cells of human): 60 µg/mL; Hemolysis HC50 ([6]; red cells of human): > 500 µg/mL; MIC, Gram positive B. subtilis [7]: 2.5 µg/mL (≈ 1.94 µM); MIC, Gram positive S. aureus ([8]; Table 7): 4 µg/mL (≈ 3.1 µM); MIC, Gram positive S. epidermidis ([9]; Table 7): 4 µg/mL (≈ 3.1 µM)
12 | CC(C)CCC(=O)N1CC(=O)N[C@@H](CCCCN)CN(C(=O)CCc2ccccc2)CC(=O)N[C@@H](Cc2ccccc2)CN(CC(N)=O)C(=O)CCC(=O)N[C@@H](CCCCN)CN(C(=O)CCc2ccccc2)CC(=O)N[C@@H](Cc2ccccc2)CN(C(=O)CCC(C)C)CC(=O)N[C@@H](CCCCN)CN(C(=O)CCc2ccccc2)CC(=O)N[C@@H](CCCCN)CN(C(=O)CCc2ccccc2)CC(=O)N[C@@H](Cc2ccccc2)C1 [HW-B-12] | – | – | > 50 | 5 (≈ 2.4 µM) | 8 (≈ 3.85 µM) | 5 (≈ 2.4 µM) | 5 (≈ 2.4 µM) | 150 | 450 | 6 µg/mL (≈ 2.88 µM) | 5 (≈ 2.4 µM) | –

Reference: patent US10308686B2, “Gamma-AApeptides with potent and broad-spectrum antimicrobial activity” (priority 2012, dated 2019)
